Test results: patent publication US20230340011A1 (Asteroid Therapeutics, priority 2022, published 2023)
Like-named read-outs stand apart in the source and are kept apart here.

Columns and labels:
SREBP-2 = SREBP-2 (Homo sapiens (Human), UniProt Q12772); experiment: In vitro assay SREBP-2: PathHunter U2OS SREBP-2 Nuclear Translocation Cell Line, U18666A-stimulated; assay type: cell-based
LXRβ = LXRβ (Homo sapiens (Human), UniProt P55055); experiment: In vitro assay LXRβ: PathHunter NHR CHO cells, LXRβ / Steroid Receptor Co-activator Peptide enzyme fragment complementation; assay type: cell-based; conditions: PathHunter NHR CHO cells, full-length human LXRβ and SRCP, chemiluminescent signal; read-out: LXRβ PPI
Procedure, shortened: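 Enzyme fragment complementation read-out: CHO cells stably expressing ProLink-tagged full-length human LXRβ plus nuclear enzyme acceptor–SRCP fusion, seeded and held overnight at 37° C. Medium with charcoal-dextran filtered serum; final vehicle 1%. Chemiluminescence measured after signal generation.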

[1] = PathHunter U2OS SREBP-2 nuclear translocation cells, U18666A 10 μM, overnight (16 hours)

Sequence of LXRβ (P55055 whole entry, the tested form may be a part): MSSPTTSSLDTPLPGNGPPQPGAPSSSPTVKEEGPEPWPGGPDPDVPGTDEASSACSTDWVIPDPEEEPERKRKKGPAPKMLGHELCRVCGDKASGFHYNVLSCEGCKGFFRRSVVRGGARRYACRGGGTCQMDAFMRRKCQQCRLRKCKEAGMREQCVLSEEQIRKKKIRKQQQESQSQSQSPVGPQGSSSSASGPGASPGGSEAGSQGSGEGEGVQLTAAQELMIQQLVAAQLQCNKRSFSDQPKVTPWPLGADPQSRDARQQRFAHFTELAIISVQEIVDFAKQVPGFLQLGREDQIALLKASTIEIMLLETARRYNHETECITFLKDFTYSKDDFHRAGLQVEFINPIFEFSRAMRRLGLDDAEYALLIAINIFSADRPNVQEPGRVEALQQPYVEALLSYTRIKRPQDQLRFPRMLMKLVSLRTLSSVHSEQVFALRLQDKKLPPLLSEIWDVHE

Row | Structure (SMILES) | IC50 (SREBP-2; [1]) [nM] | EC50 (LXRβ) [nM] | IC50 (SREBP-2) [nM]
1 | COC(=O)N1CCN(C(=O)[C@@H](C)[C@H]2CC[C@H]3[C@@H]4CC=C5C[C@@H](O)CC[C@]5(C)[C@H]4CC[C@]23C)CC1 [Example 598, methyl 4-((S)-2-((3S,8S,9S,10R,13S,14S,17R)-3-hydroxy-10,13-dimethyl-2,3,4,7,8,9,10,11,12,13,14,15,16,17-tetradecahydro-1H-cyclopenta[a]phenanthren-17-yl)propanoyl)piperazine-1-carboxylate] | 1000 to 10000 | > 10000 | 
2 | C[C@H](CCC(=O)N1CCN(c2ncccc2OC2CC2)CC1)[C@H]1CC[C@H]2[C@@H]3CC=C4C[C@@H](O)CC[C@]4(C)[C@H]3CC[C@]12C [Example 621, (R)-1-(4-(3-cyclopropoxypyridin-2-yl)piperazin-1-yl)-4-((3S,8S,9S,10R,13R,14S,17R)-3-hydroxy-10,13-dimethyl-2,3,4,7,8,9,10,11,12,13,14,15,16,17-tetradecahydro-1H-cyclopenta[a]phenanthren-17-yl)pentan-1-one] | < 250 | > 10000 | 
3 | C[C@H](CCC(=O)N1CCN(c2ncnn2C)CC1)[C@H]1CC[C@H]2[C@@H]3CC=C4C[C@@H](O)CC[C@]4(C)[C@H]3CC[C@]12C [Example 605, (R)-4-((3S,8S,9S,10R,13R,14S,17R)-3-hydroxy-10,13-dimethyl-2,3,4,7,8,9,10,11,12,13,14,15,16,17-tetradecahydro-1H-cyclopenta[a]phenanthren-17-yl)-1-(4-(1-methyl-1H-1,2,4-triazol-5-yl)piperazin-1-yl)pentan-1-one] | < 250 | > 10000 | 
4 | C[C@H](CCC(=O)N1CC(C(O)(C(F)(F)F)C(F)(F)F)C1)[C@H]1CC[C@H]2[C@@H]3CC=C4C[C@@H](O)CC[C@]4(C)[C@H]3CC[C@]12C [Example 97, (R)-1-(3-(1,1,1,3,3,3-hexafluoro-2-hydroxypropan-2-yl)azetidin-1-yl)-4-((3S,8S,9S,10R,13R,14S,17R)-3-hydroxy-10,13-dimethyl-2,3,4,7,8,9,10,11,12,13,14,15,16,17-tetradecahydro-1H-cyclopenta[a]phenanthren-17-yl) pentan-1-one] | < 250 | > 10000 | 
5 | [C-]#[N+]c1cccnc1CC[C@@H](C)[C@H]1CC[C@H]2[C@@H]3CC=C4C[C@@H](O)CC[C@]4(C)[C@H]3CC[C@]12C [Example 638, (3S,8S,9S,10R,13R,14S,17R)-17-((R)-4-(3-isocyanopyridin-2-yl)butan-2-yl)-10,13-dim ethyl-2,3,4,7,8,9,10,11,12,13,14,15,16,17-tetradecahydro-1H-cyclopenta[a]phenanthren-3-ol] | < 250 | 250 to 1000 | 
6 | C[C@H](CCC(=O)N1CCN(c2ccnc(N)n2)CC1)[C@H]1CC[C@H]2[C@@H]3CC=C4C[C@@H](O)CC[C@]4(C)[C@H]3CC[C@]12C [Example 560, (R)-1-(4-(2-aminopyrimidin-4-yl)piperazin-1-yl)-4-((3S,8S,9S,10R,13R,14S,17R)-3-hydroxy-10,13-dimethyl-2,3,4,7,8,9,10,11,12,13,14,15,16,17-tetradecahydro-1H-cyclopenta[a]phenanthren-17-yl)pentan-1-one] | < 250 | > 10000 | 
7 | C[C@H](C(=O)Nc1ccncc1)[C@H]1CC[C@H]2[C@@H]3CC=C4C[C@@H](O)CC[C@]4(C)[C@H]3CC[C@]12C [Example 600, (S)-2-((3S,8S,9S,10R,13S,14S,17R)-3-hydroxy-10,13-dimethyl-2,3,4,7,8,9,10,11,12,13,14,15,16,17-tetradecahydro-1H-cyclopenta[a]phenanthren-17-yl)-N-(pyridin-4-yl)propanamide] | 1000 to 10000 | > 10000 | 
8 | Cc1ncncc1CC[C@@H](C)[C@H]1CC[C@H]2[C@@H]3CC=C4C[C@@H](O)CC[C@]4(C)[C@H]3CC[C@]12C [Example 188, (3S,8S,9S,10R,13R,14S,17R)-10,13-dimethyl-17-((R)-4-(4-methylpyrimidin-5-yl)butan-2-yl)-2,3,4,7,8,9,10,11,12,13,14,15,16,17-tetradecahydro-1H-cyclopenta[a]phenanthren-3-ol] | < 250 | 1000 to 10000 | 
9 | C[C@H](COc1cc(CO)ccn1)[C@H]1CC[C@H]2[C@@H]3CC=C4C[C@@H](O)CC[C@]4(C)[C@H]3CC[C@]12C [Example 258, (3S,8S,9S,10R,13S,14S,17R)-17-((S)-1-((4-(hydroxymethyl)pyridin-2-yl)oxy)propan-2-yl)-10,13-dimethyl-2,3,4,7,8,9,10,11,12,13,14,15,16,17-tetradecahydro-1H-cyclopenta[a]phenanthren-3-ol] | < 250 | > 10000 | 
10 | CCC(=O)N1CCN(C(=O)CC[C@@H](C)[C@H]2CC[C@H]3[C@@H]4CC=C5C[C@@H](O)CC[C@]5(C)[C@H]4CC[C@]23C)CC1 [Example 385, (R)-4-((3S,8S,9S,10R,13R,14S,17R)-3-hydroxy-10,13-dimethyl-2,3,4,7,8,9,10,11,12,13,14,15,16,17-tetradecahydro-1H-cyclopenta[a]phenanthren-17-yl)-1-(4-propionylpiperazin-1-yl) pentan-1-one] | < 250 | > 10000 | 
11 | C[C@H](CCC(=O)N1CCC(NS(C)(=O)=O)CC1)[C@H]1CC[C@H]2[C@@H]3CC=C4C[C@@H](O)CC[C@]4(C)[C@H]3CC[C@]12C [Example 414, N-(1-((R)-4-((3S,8S,9S,10R,13R,14S,17R)-3-hydroxy-10,13-dimethyl-2,3,4,7,8,9,10,11,12,13,14,15,16,17-tetradecahydro-1H-cyclopenta[a]phenanthren-17-yl)pentanoyl)piperidin-4-yl)methanesulfonamide] | 250 to 1000 | > 10000 | 
12 | CON(C)C(=O)C(C)C[C@@H](C)[C@H]1CC[C@H]2[C@@H]3CC=C4C[C@@H](O)CC[C@]4(C)[C@H]3CC[C@]12C (stereo partly drawn) [Example 142, (4R)-4-((3S,8S,9S,10R,13R,14S,17R)-3-hydroxy-10,13-dimethyl-2,3,4,7,8,9,10,11,12,13,14,15,16,17-tetradecahydro-1H-cyclopenta[a]phenanthren-17-yl) -N-methoxy-N,2-dimethylpentanamide] |  | 1000 to 10000 | 1000 to 10000
13 | C[C@H](CCC(=O)N1CCN(C(=O)c2ccncn2)CC1)[C@H]1CC[C@H]2[C@@H]3CC=C4C[C@@H](O)CC[C@]4(C)[C@H]3CC[C@]12C [Example 334, (R)-4-((3S,8S,9S,10R,13R,14S,17R)-3-hydroxy-10,13-dimethyl-2,3,4,7,8,9,10,11,12,13,14,15,16,17-tetradecahydro-1H-cyclopenta[a]phenanthren-17-yl)-1-(4-(pyrimidine-4-carbonyl)piperazin-1-yl)pentan-1-one] | < 250 | > 10000 | 
14 | C[C@H](CCc1ncccc1CO)[C@H]1CC[C@H]2[C@@H]3CC=C4C[C@@H](O)CC[C@]4(C)[C@H]3CC[C@]12C [Example 454, (3S,8S,9S,10R,13R,14S,17R)-17-((R)-4-(3-(hydroxymethyl)pyridin-2-yl)butan-2-yl)-10,13-dimethyl-2,3,4,7,8,9,10,11,12,13,14,15,16,17-tetradecahydro-1H-cyclopenta[a]phenanthren-3-ol] | < 250 | < 250 | 
15 | C[C@H](CCC(=O)N1CCN(C(=O)N2CCCC2)[C@@H](C)C1)[C@H]1CC[C@H]2[C@@H]3CC=C4C[C@@H](O)CC[C@]4(C)[C@H]3CC[C@]12C [Example 654, (4R)-4-[(1R,3aS,3bS,7S,9aR,9bS,11aR)-7-hydroxy-9a,11a-dimethyl-1H,2H,3H,3aH,3bH,4H,6H,7H,8H,9H,9aH,9bH,10H,11H,11aH-cyclopenta[a]phenanthren-1-yl]-1-[(3 S)-3-methyl-4-(pyrrolidine-1-carbonyl)piperazin-1-yl]pentan-1-one] | < 250 | > 10000 | 
16 | C[C@H](CCc1ccns1)[C@H]1CC[C@H]2[C@@H]3CC=C4C[C@@H](O)CC[C@]4(C)[C@H]3CC[C@]12C [Example 183, (3S,8S,9S,10R,13R,14S,17R)-17-((R)-4-(isothiazol-5-yl)butan-2-yl)-10,13-dimethyl-2,3,4,7,8,9,10,11,12,13,14,15,16,17-tetradecahydro-1H-cyclopenta[a]phenanthren-3-ol] | 250 to 1000 | > 10000 | 
17 | C[C@H](CCC(=O)N1CCN(c2ccncc2)[C@@H](C)C1)[C@H]1CC[C@H]2[C@@H]3CC=C4C[C@@H](O)CC[C@]4(C)[C@H]3CC[C@]12C [Example 567, (R)-4-((3S,8S,9S,10R,13R,14S,17R)-3-hydroxy-10,13-dimethyl-2,3,4,7,8,9,10,11,12,13,14,15,16,17-tetradecahydro-1H-cyclopenta[a]phenanthren-17-yl)-1-((S)-3-methyl-4-(pyridin-4-yl)piperazin-1-yl)pentan-1-one] | < 250 | > 10000 | 
18 | C[C@H](CCC(=O)N1CCN(c2cc(O)ncn2)CC1)[C@H]1CC[C@H]2[C@@H]3CC=C4C[C@@H](O)CC[C@]4(C)[C@H]3CC[C@]12C [Example 631, (4R)-4-[(1R,3aS,3bS,7S,9aR,9bS,11aR)-7-hydroxy-9a,11a-dimethyl-1H,2H,3H,3aH,3bH,4H,6H,7H,8H,9H,9aH,9bH,10H,11H,11aH-cyclopenta[a]phenanthren-1-yl]-1-[4-(6-hydroxypyrimidin-4-yl)piperazin-1-yl]pentan-1-one] | < 250 | > 10000 | 
19 | C[C@H](CCc1cncnc1)[C@H]1CC[C@H]2[C@@H]3CC=C4C[C@@H](O)CC[C@]4(C)[C@H]3CC[C@]12C [Example 171, (3S,8S,9S,10R,13R,14S,17R)-10,13-dimethyl-17-((R)-4-(pyrimidin-5-yl)butan-2-yl)-2,3,4,7,8,9,10,11,12,13,14,15,16,17-tetradecahydro-1H-cyclopenta[a]phenanthren-3-ol] | < 250 | > 10000 | 
